Converted amounts (≈) assume the structure as drawn.
Key:
[1] = system: Staphylococcus aureus S13E; assay type: cell-based
Protocol: (§1) The MIC's were determined using a standard broth micro-dilution assay.

[2] = system: Staphylococcus aureus SA1199B; assay type: cell-based
Protocol: as §1

[3] = system: Entercoccus faecium 180-1; test: broth micro-dilution MIC; assay type: cell-based
Protocol: as §1

Entercoccus faecium 276 = test: broth micro-dilution MIC; assay type: cell-based
Protocol: as §1

[4] = system: Staphylococcus aureus 446; test: broth micro-dilution MIC; assay type: cell-based
Protocol: as §1

[5] = system: Staphylococcus aureus 447; test: broth micro-dilution MIC; assay type: cell-based
Protocol: as §1

[6] = system: Staphylococcus aureus 489; test: broth micro-dilution MIC; assay type: cell-based
Protocol: as §1

[7] = system: Staphylococcus aureus 491; test: broth micro-dilution MIC; assay type: cell-based
Protocol: as §1

[8] = system: Staphylococcus aureus SA1199A; test: broth micro-dilution MIC; assay type: cell-based
Protocol: as §1

[9] = system: Staphylococcus aureus SA1199; test: broth micro-dilution MIC; assay type: cell-based
Protocol: as §1

[10] = system: Staphylococcus aureus X400; test: broth micro-dilution MIC; assay type: cell-based
Protocol: as §1

[11] = system: Staphylococcus aureus X778; test: broth micro-dilution MIC; assay type: cell-based
Protocol: as §1

[12] = system: Streptococcus pyogenes C203; test: broth micro-dilution MIC; assay type: cell-based
Protocol: as §1

Entercoccus faecium 180 = test: broth micro-dilution MIC; assay type: cell-based; details: Entercoccus faecium 180
Protocol: (§2) The formula I compounds have in vitro and in vivo activity against Gram-positive pathogenic bacteria. The MIC's were determined using a standard broth micro-dilution assay.

Entercoccus faecium 2041 = test: broth micro-dilution MIC; assay type: cell-based; details: Entercoccus faecium 2041
Protocol: as §2

[13] = system: Enterococcus gallinarum 245; test: broth micro-dilution MIC; assay type: cell-based; details: Enterococcus gallinarum 245
Protocol: as §2

Escherichia coli EC14 = test: broth micro-dilution MIC; assay type: cell-based
Protocol: as §2

[14] = system: Haemophilus influenzae RD; test: broth micro-dilution MIC; assay type: cell-based; details: Haemophilus influenzae RD
Protocol: as §2

[15] = system: Staphylococcus epidermidis 270; test: broth micro-dilution MIC; assay type: cell-based
Protocol: as §2

[16] = system: Staphylococcus haemolyticus 105; test: broth micro-dilution MIC; assay type: cell-based
Protocol: as §2

[17] = system: Staphylococcus haemolyticus 415; test: broth micro-dilution MIC; assay type: cell-based
Protocol: as §2

[18] = system: Streptococcus pneumoniae P1; test: broth micro-dilution MIC; assay type: cell-based
Protocol: as §2

[19] = system: vancomycin-resistant enterococci; test: broth micro-dilution, mean geometric MIC; assay type: cell-based, Enterococcus faecium and Enterococcus faecalis; details: enterococci, 24-hour incubation
[20] = system: vancomycin-susceptible enterococci; test: broth micro-dilution, mean geometric MIC; assay type: cell-based, Enterococcus faecium and Enterococcus faecalis; details: enterococci, 24-hour incubation

`CC(C)CC(C(=O)NC1C(=O)NC(CC(N)=O)C(=O)NC2C(=O)NC3C(=O)NC(C(=O)NC(C(=O)O)c4cc(O)cc(O)c4-c4cc3ccc4O)C(OC3CC(C)(N)C(O)C(C)O3)c3ccc(c(Cl)c3)Oc3cc2cc(c3OC2OC(CO)C(O)C(O)C2OC2CC(C)(NCc3cccnc3)C(O)C(C)O2)Oc2ccc(cc2Cl)C1O)N(C)Cc1cccnc1` (stereo not drawn) [Compound 280] gave an MIC [1] of 2 µg/mL (≈ 1.13 µM), an MIC [2] of 0.5 µg/mL (≈ 0.282 µM) and an MIC [3] of 0.25 µg/mL (≈ 0.141 µM). The MIC (Entercoccus faecium 276) was 0.5 µg/mL (≈ 0.282 µM), the MIC [4] was 2 µg/mL (≈ 1.13 µM) and the MIC [5] was 8 µg/mL (≈ 4.51 µM). For the same compound, the MIC [6] was 1 µg/mL (≈ 0.563 µM), the MIC [7] was 2 µg/mL (≈ 1.13 µM) and the MIC [8] was 0.5 µg/mL (≈ 0.282 µM). It also gave an MIC [9] of 2 µg/mL (≈ 1.13 µM), an MIC [10] of 1 µg/mL (≈ 0.563 µM) and an MIC [11] of 0.5 µg/mL (≈ 0.282 µM). The MIC [12] was 0.125 µg/mL (≈ 0.0704 µM), the MIC (Entercoccus faecium 180) was 32 µg/mL (≈ 18 µM) and the MIC (Entercoccus faecium 2041) was 1 µg/mL (≈ 0.563 µM). The MIC [13] was 32 µg/mL (≈ 18 µM), the MIC (Escherichia coli EC14) was > 64 µg/mL and the MIC [14] was > 64 µg/mL. The MIC [15] was 8 µg/mL (≈ 4.51 µM), the MIC [16] was > 64 µg/mL and the MIC [17] was 32 µg/mL (≈ 18 µM). The MIC [18] was 0.125 µg/mL (≈ 0.0704 µM), the “mean geometric MIC, Vancomycin Resistant Strains” value [19] was > 128 µg/mL and the “mean geometric MIC, Vancomycin Sensitive Strains” value [20] was 7 µg/mL.
In the case of `CC(C)CC(C(=O)NC1C(=O)NC(CC(N)=O)C(=O)NC2C(=O)NC3C(=O)NC(C(=O)NC(C(=O)O)c4cc(O)cc(O)c4-c4cc3ccc4O)C(OC3CC(C)(N)C(O)C(C)O3)c3ccc(c(Cl)c3)Oc3cc2cc(c3OC2OC(CO)C(O)C(O)C2OC2CC(C)(NCc3ccccn3)C(O)C(C)O2)Oc2ccc(cc2Cl)C1O)N(C)Cc1ccccn1` (stereo not drawn) [Compound 281], the MIC [1] is reported as 32 µg/mL (≈ 18 µM), the MIC [2] is reported as 32 µg/mL (≈ 18 µM) and the MIC [3] is reported as 4 µg/mL (≈ 2.25 µM). The MIC (Entercoccus faecium 276) was 8 µg/mL (≈ 4.51 µM), the MIC [4] was 64 µg/mL (≈ 36.1 µM) and the MIC [5] was > 64 µg/mL. The MIC [6] was 32 µg/mL (≈ 18 µM), the MIC [7] was > 64 µg/mL and the MIC [8] was 4 µg/mL (≈ 2.25 µM). For the same compound, the MIC [9] was > 64 µg/mL, the MIC [10] was > 64 µg/mL and the MIC [11] was 16 µg/mL (≈ 9.02 µM). The MIC [12] was 0.5 µg/mL (≈ 0.282 µM), the MIC (Entercoccus faecium 180) was > 64 µg/mL and the MIC (Entercoccus faecium 2041) was 8 µg/mL (≈ 4.51 µM). The MIC [13] was > 64 µg/mL, the MIC (Escherichia coli EC14) was > 64 µg/mL and the MIC [14] was > 64 µg/mL. For the same compound, the MIC [15] was > 64 µg/mL, the MIC [16] was > 64 µg/mL and the MIC [17] was > 64 µg/mL. For the same compound, the MIC [18] was ≤ 0.06 µg/mL, the “mean geometric MIC, Vancomycin Resistant Strains” value [19] was > 128 µg/mL and the “mean geometric MIC, Vancomycin Sensitive Strains” value [20] was 37 µg/mL.
With `COc1ccc2ccccc2c1CNC1(C)CC(OC2C(Oc3c4cc5cc3Oc3ccc(cc3Cl)C(OC3CC(C)(N)C(O)C(C)O3)C3NC(=O)C(NC(=O)C5NC(=O)C(CC(N)=O)NC(=O)C(NC(=O)C(CC(C)C)N(C)Cc5c(OC)ccc6ccccc56)C(O)c5ccc(c(Cl)c5)O4)c4ccc(O)c(c4)-c4c(O)cc(O)cc4C(C(=O)O)NC3=O)OC(CO)C(O)C2O)OC(C)C1O` (stereo not drawn) [Compound 282] the MIC [1] was 16 µg/mL (≈ 8.28 µM), the MIC [2] was 16 µg/mL (≈ 8.28 µM) and the MIC [3] was 1 µg/mL (≈ 0.517 µM). The MIC (Entercoccus faecium 276) was 4 µg/mL (≈ 2.07 µM), the MIC [4] was 32 µg/mL (≈ 16.6 µM) and the MIC [5] was > 64 µg/mL. For the same compound, the MIC [6] was 8 µg/mL (≈ 4.14 µM), the MIC [7] was 16 µg/mL (≈ 8.28 µM) and the MIC [8] was 1 µg/mL (≈ 0.517 µM). The MIC [9] was 16 µg/mL (≈ 8.28 µM), the MIC [10] was 16 µg/mL (≈ 8.28 µM) and the MIC [11] was 16 µg/mL (≈ 8.28 µM). For the same compound, the MIC [12] was ≤ 0.06 µg/mL, the MIC (Entercoccus faecium 180) was 32 µg/mL (≈ 16.6 µM) and the MIC (Entercoccus faecium 2041) was 4 µg/mL (≈ 2.07 µM). The MIC [13] was > 64 µg/mL, the MIC (Escherichia coli EC14) was > 64 µg/mL and the MIC [14] was > 64 µg/mL. For the same compound, the MIC [15] was > 64 µg/mL, the MIC [16] was > 64 µg/mL and the MIC [17] was > 64 µg/mL. The MIC [18] was ≤ 0.06 µg/mL, the “mean geometric MIC, Vancomycin Resistant Strains” value [19] was 45 µg/mL and the “mean geometric MIC, Vancomycin Sensitive Strains” value [20] was 2.6 µg/mL.
